We go through ten molecules from patent US20220153732A1, “PROTEIN SECRETION INHIBITORS” (KEZAR LIFE SCIENCES, priority 2019, published 2022).

The structures appear in SMILES notation. pEC50, pIC50: −log10 of the molar value.

A word on the pEC50: it is the negative decadic logarithm of the EC50, by convention in mol/L.

What all share (assay type): cell-based
Assay [1] relates to TNFα-FL/Gaussia Luciferase. The experiment in a line: Dox Induced TNFα-FL-Gluc Assay. To be noted: 24 hr doxycycline induction, 293FRT/TO cells, Gaussia luciferase signal; read-out: 24 hr Dox Inducible TNFaFLGluc 293FRT/TO: Mean IC50. A digest of the protocol:
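Compounds were added in doxycycline-containing DMSO/media to cells plated the previous day and incubated at 37° C under 5% CO2. These cells stably express a TNFα-FL/Gaussia luciferase cDNA whose expression is under T-REx (Dox-inducible) control, selected with Hygromycin and Blasticidin.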

Assay [2] deals with IL-2-FL/Gaussia Luciferase. The experiment in a line: Dox Induced IL2-FL-Gluc Assay. To be noted: 24 hr doxycycline induction, 293FRT/TO cells, Gaussia luciferase signal; read-out: 24 hr Dox Inducible IL2FLGIuc 293FRT/TO: Mean IC50. A digest of the protocol: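 Compounds were added together with doxycycline in DMSO/media and incubated at 37° C., 5% CO2. The cells were a stably selected line carrying IL-2-FL/Gaussia luciferase under T-REx inducible control. Structures drawn without stereochemistry were tested as stereoisomer mixtures.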

For assay [3], the system named is PD1-ss+10aa/Gaussia Luciferase. Put plainly: Dox-Induced PD1-ss-Gluc Assay. To be noted: 24 hr doxycycline induction, 293FRT/TO cells, Gaussia luciferase signal; read-out: 24 hr Dox Inducible PD1ssGluc 293FRT/TO: Mean IC50. In short, it runs like this:
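Compounds, diluted in DMSO/media with doxycycline, were added to cells plated a day earlier and kept at 37° C under 5% CO2. The cells stably express a Gaussia luciferase construct fused to PD1-ss+10aa, induced via the T-REx system. Unassigned stereochemistry means mixture data.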

Assay [4] relates to HER3-ss+4aa/Gaussia Luciferase. Put plainly: Dox-Induced Her3-ss-Gluc Assay. To be noted: 24 hr doxycycline induction, 293FRT/TO cells, Gaussia luciferase signal; read-out: 24 hr Dox Inducible Her3(ss + 4)Gluc 293FRT/TO: Mean IC50. A digest of the protocol: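 Compounds, diluted in DMSO/media containing doxycycline, were incubated at 37° C., 5% CO2 with cells seeded one day earlier. The cells stably express HER3-ss+4aa/Gaussia luciferase under T-REx control. Where no stereochemistry is shown, data refer to the mixture of stereoisomers.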

Assay [5] concerns human multiple myeloma cell line NCI-H929. Put plainly: H929 Cell Viability Assay. To be noted: 48 hr, NCI-H929 cells, Celltiter-Glo, read-out: 48 hr H929 Viability Celltiter-Glo: Mean EC50. The procedure: Plates were incubated at 37° C., 5% CO2 for 48 hours. After 48 hours, Celltiter-Glo® (Promega) was added to each well and luciferase signal was quantified using Tecan Infinite M1000 Pro for cell viability determination.
For chemical structures that include one or more stereoisomers, but are illustrated without indicating stereochemistry, the assay data refers to a mixture of stereoisomers.
In general terms: ATP-based viability assays read luminescence as a measure of living cells.

Assay [6] concerns human multiple myeloma cell line U266B1. The experiment in a line: U266 Cell Viability Assay. To be noted: U-266, 48 hr, U266B1 cells, Celltiter-Glo, read-out: 48 hr U266 Viability Celltiter-Glo: Mean EC50. A digest of the protocol: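 Viability measured by CellTiter-Glo luciferase signal after 48 h compound exposure (37 °C, 5% CO2) of U266B1 cells in 384-well format. Where stereochemistry is not shown, data refer to the stereoisomer mixture.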

On to `Cc1ccn(Cc2ccncc2)c1C(=O)Nc1nc(C(C)(C)OC(C)C)cs1` [Compound A88, N-(4-(2-isopropoxypropan-2-yl)thiazol-2-yl)-3-methyl-1-(pyridin-4-ylmethyl)-1H-pyrrole-2-carboxamide], for which the pIC50 was < 4.60 in assay [1], < 4.60 in assay [2], 5.02 in assay [3] and < 4.60 in assay [4]. The pEC50 in assay [5] and in assay [6] was < 4.60 throughout.

`O=C(Nc1nc(C2(OCc3ccccc3)CC2)cs1)c1cccn1Cc1ccncc1` [Compound A263, N-(4-(1-(benzyloxy)cyclopropyl)thiazol-2-yl)-1-(pyridin-4-ylmethyl)-1H-pyrrole-2-carboxamide]: the pIC50 in assay [1] is 5.28; in assay [2], 5.98; in assay [3], 6.42; in assay [4], 6.02. Also, the pEC50 in assay [5] was 4.67; in assay [6], < 4.60.

Regarding `CC(C)(OCc1ccccn1)c1csc(NC(=O)c2cccn2Cc2ccncc2)n1` [Compound A257], the pIC50 in assay [1] was 4.60; in assay [2] it was 5.44; in assay [3], 5.73; in assay [4], 5.40. Also, the pEC50 in assay [5] and in assay [6] was < 4.60 in each case.

On to `CO[C@H]1CC[C@H](/C=C/c2csc(NC(=O)c3cccn3Cc3ccncc3)n2)CC1` [Compound A253, N-(4-(2-((1r,4r)-4-methoxycyclohexyl)vinyl)thiazol-2-yl)-1-(pyridin-4-ylmethyl)-1H-pyrrole-2-carboxamide], for which the pIC50 in assay [1] was 5.38; in assay [2], 5.80; in assay [3], 6.66; in assay [4], 6.17. The negative logarithm of the EC50 (pEC50) is 4.97 in assay [5] and 4.81 in assay [6].

Regarding `CCc1cnc(NC(=O)c2cccn2Cc2ccncc2)s1` [Compound A65], the pIC50 in assay [1] is < 4.60; in assay [2], 4.95; in assay [3], 5.75; in assay [4], 5.38. Besides, the pEC50 in assay [5] and in assay [6] was < 4.60 throughout.

`CC(C)OC(C)(C)c1csc(NC(=O)c2cccn2C(C)c2ccncc2)n1` (stereo not drawn) [Compound A61]: the pIC50 in assay [1] is < 4.60; in assay [2], 5.62; in assay [3], 5.78; in assay [4], 5.47. In addition, the pEC50 in assay [5] and in assay [6] was < 4.60 throughout.

`O=C(Nc1nc([C@H]2C[C@H]2c2ccccc2)cs1)c1cccn1Cc1ccncc1` [Compound A200]: the pIC50 in assay [1] was 5.79; in assay [2] it was 6.60; in assay [3] it was 6.85; in assay [4], 6.48. Moreover, the pEC50 is 4.80 in assay [5] and < 4.60 in assay [6].

Regarding `O=C(Nc1nc(/C=C/c2ccccc2)cs1)c1cccn1CCCc1ccncc1` [Compound A33, 1-(3-(pyridin-4-yl)propyl)-N-(4-styrylthiazol-2-yl)-1H-pyrrole-2-carboxamide], the pIC50 is < 4.60 in assay [1], 5.61 in assay [2], 6.18 in assay [3] and 5.79 in assay [4]. Further, the results for the pEC50 in assay [5] and in assay [6] were 5.05 and 5.16, respectively.

As to `CCc1nc(NC(=O)c2cccn2Cc2ccncc2)sc1C` [Compound A32, N-(4-ethyl-5-methylthiazol-2-yl)-1-(pyridin-4-ylmethyl)-1H-pyrrole-2-carboxamide], the pIC50 in assay [1] is < 4.69; in assay [2], 5.70; in assay [3], 6.20; in assay [4], 5.88. For the same molecule, the pEC50 in assay [5] and in assay [6] was < 4.60 throughout.

For the molecule `CC(C)c1csc(NC(=O)c2cccn2Cc2ccncc2)n1` [Compound A26, N-(4-isopropylthiazol-2-yl)-1-(pyridin-4-ylmethyl)-1H-pyrrole-2-carboxamide], the pIC50 in assay [1] was 4.97; in assay [2], 6.12; in assay [3], 6.50; in assay [4], 6.09. The negative logarithm of the EC50 (pEC50) in assay [5] and in assay [6] was < 4.60 in each case.
